Data on two compounds can be found in patent US20250205192A1, “METHODS AND MATERIALS FOR TREATING PANCREATIC DISEASES AND DISORDERS” (MAYO FOUNDATION FOR MEDICAL EDUCATION AND RESEARCH, priority 2022, published 2025).

This data set deals with male CD-1 mice. Nature of the data set: Intraperitoneal GTL injection in mice, peritoneal cavity assessed for nodules, adhesions and fibrosis after 1 week. It counts as in vivo. The method, then: 25% glyceryl trilinoleate (GTL) homogenous suspension in saline was prepared by heating, mixing, and sonication.
Agent 767 was dissolved in a 25% sonicated suspension of GTL in saline. This was prepared by adding […] of the 25% GTL suspension to 10 mg of 767 at room temperature. The solution was then mixed, heated gently to 37-40° C., and sonicated to ensure homogeneous emulsion.
Each experiment used 4 male CD-1 mice (35-39 grams).
Two mice were each given 0.2 mL of 25% GTL by intraperitoneal injection.
Two mice were given 0.2 mL of 767 in 25% GTL by intraperitoneal injection.
Mice were sacrificed after 1 week, and the peritoneal cavity was assessed for nodules.

“Also recorded” adds a separate entry of the source.

With `CCCCC/C=C\C/C=C\CCCCCCCC(=O)OCC(COC(=O)CCCCCCC/C=C\C/C=C\CCCCC)OC(=O)CCCCCCC/C=C\C/C=C\CCCCC` [GTL, glyceryl trilinoleate], the “adherence of duodenum, pancreas and spleen after GTL alone” value (en bloc excised organs from mice given GTL intraperitoneally) is “adherent and difficult to separate”. Besides, the “peritoneal appearance (nodules and strands) after GTL alone” value (mice given 0.2 mL of 25% GTL by intraperitoneal injection, 1 week, compared with control mice) was “had nodules and strands; also recorded: had clearly discernable nodules”. Moreover, the “pancreatitis abnormalities by blood urea nitrogen (BUN), glucose or albumin levels after GTL alone” value (mice given GTL intraperitoneally) was “did not exhibit pancreatitis abnormalities”. Moreover, the “fibrosis of the wall of the nodules (Sirius red stain) after GTL alone” value (nodules from mice given GTL intraperitoneally) is “strongly positive for fibrosis”.

Take `CCCCCCCCCCC[C@@H](C[C@@H]1OC(=O)[C@H]1CC)OC(=O)[C@H](C)NC=O` [compound 767]: the “nodules in the peritoneal cavity and in the vicinity of the pancreas” value (mice given 0.2 mL of 767 in 25% GTL by intraperitoneal injection, sacrificed after 1 week, compared with GTL only) was “did not have noticeable nodules”. Besides, the “adhesions in the peritoneal cavity in spaces away from the pancreas” value (mice given 767 in 25% GTL intraperitoneally, 1 week) is given as “prevented adhesions”.
